Where a name gives a salt, the structure may show the parent alone.

T1 sequence (Q9Y5N1 whole entry): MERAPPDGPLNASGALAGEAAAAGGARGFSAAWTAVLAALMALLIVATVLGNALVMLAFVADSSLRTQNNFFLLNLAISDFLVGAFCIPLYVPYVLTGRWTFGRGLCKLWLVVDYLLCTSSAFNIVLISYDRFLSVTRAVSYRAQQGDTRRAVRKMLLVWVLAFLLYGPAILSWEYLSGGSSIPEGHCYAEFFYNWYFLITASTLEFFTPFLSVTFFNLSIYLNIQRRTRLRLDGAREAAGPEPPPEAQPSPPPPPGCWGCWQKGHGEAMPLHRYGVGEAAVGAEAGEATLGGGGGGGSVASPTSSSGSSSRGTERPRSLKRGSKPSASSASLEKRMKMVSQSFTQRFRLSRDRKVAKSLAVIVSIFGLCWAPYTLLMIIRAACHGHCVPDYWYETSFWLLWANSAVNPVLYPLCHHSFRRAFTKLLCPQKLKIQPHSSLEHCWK

The first data set concerns the target T1, Histamine Receptor H3 (Homo sapiens, UniProt Q9Y5N1).
T1 construct: expressed in transfected cells
As to the kind of experiment: Cyclic AMP assay for histamine receptor H3 antagonism activity. The data set is classed as cell-based. Particulars: stable H3 cells; histamine plus 10 μM forskolin; 30 min at 30° C.; read-out: cAMP Kb. On the procedure:
Cyclic AMP Assay for Histamine Receptor H3 Antagonism Activity.
Stable H3 cells are maintained in tissue culture flask in DMEM with high glucose, 10% FBS, 1× pen/strep, 500 ug/ml GY18, until experiment. Culture media is removed and cells are washed twice with PBS w/ Ca++ and Mg++ plus 500 μM IBMX. Cells are then detached by tapping on the side of the flask and resuspend in the same buffer. Two thousand cells/well are incubated with […] histamine plus 10 μM forskolin plus various concentrations of compounds in a total volume of 30 μL in 96 well plates for 30 min at 30° C. Final test compound concentrations range from 10^-4M to 10-9.5M at full log dilutions. Cyclic AMP levels are measured using HitHunter cAMP kit from Discoverx, cat# 900041 according to manufacturer's instruction. Chemiluminescence signals are detected using Top Count (Packard). Cyclic AMP levels in control cells receiving 10 μM forskolin plus 100 nM histamine are considered 0%, and in cells receiving 10 uM forskolin plus 100 nM histamine plus 1 μM clobenpropit are considered 100%. Data are expressed as % control and analyzed using Prizm soft ware. The Kb values are calculated using the following equation, KB=EC50 or IC50/[1+(ligand/Kd)].
For `CN(C)C1CCN(C(=O)c2ccc(NC(=O)c3ccc4ccccc4n3)cc2)C1` (stereo not drawn) [Example 17, N-(4-{[3-(dimethylamino)pyrrolidin-1-yl]carbonyl}phenyl)quino-line-2-carboxamide], the Kb stood at 57 nM.
Same read-out and setting: under `Cc1csc2c(Nc3ccc(C(=O)N4CCC(N(C)C)C4)cc3)ncnc12` (stereo not drawn) [Example 7, N-(4-{[3-(dimethylamino)pyrrolidin-1-yl]carbonyl}phenyl)-7-methylthieno[3,2-d]pyrimidin-4-amine] stands 14 nM.

System in another data set: not given
Test: not given
Conditions: not given
`Cc1cc(Cl)ccc1Oc1ccc(C(=O)N2CC[C@H](N3CCCC3)C2)cc1` (as salt: hydrochloride) [Example 39, (3′S)-1′-[4-(4-chloro-2-methylphenoxy)benzoyl]-1,3′-bipyrrolidine] returned a melting point of 123 to 125 °C.
On to `Cc1ccc(Oc2ccc(C(=O)N3CC[C@H](N4CCCC4)C3)cc2)c(Cl)c1` (as salt: hydrochloride) [Example 40, (3′S)-1′-[4-(2-chloro-4-methylphenoxy)benzoyl]-1,3′-bipyrrolidine], for which the melting point is 124 to 126 °C.
With `COc1cccc(Oc2ccc(C(=O)N3CC[C@H](N4CCCC4)C3)cc2)c1` (as salt: hydrochloride) [Example 36, (3′S)-1′-[4-(3-methoxyphenoxy)benzoyl]-1,3′-bipyrrolidine], the melting point lay within 82 to 84 °C.
Still for that read-out and setting: under `Cc1ccc(Oc2ccc(C(=O)N3CC[C@H](N4CCCC4)C3)cc2)cc1` (as salt: hydrochloride) [Example 35, (3′S)-1′-[4-(4-methylphenoxy)benzoyl]-1,3′-bipyrrolidine] stands 98 to 100 °C.

These data come from patent publication US7842715B2, “N-benzoyl- and N-benzylpyrrolidin-3-ylamines as histamine-3 antagonists” (Wyeth LLC, priority 2006, dated 2010).
